Measured values from article PMC10135050, “Neutralizing Carbapenem Resistance by Co-Administering Meropenem with Novel β-Lactam-Metallo-β-Lactamase Inhibitors” (Antibiotics, 2023).
Like-named read-outs stand apart in the source and are kept apart here.

Columns and labels:
[1] = system: Klebsiella pneumoniae ENNES (VIM-1); assay: MIC, broth microdilution and checkerboard assay; format: cell-based
Method: (§1) The Minimum Inhibitory Concentration (MIC) of meropenem BP2 was determined utilizing the broth microdilution assay, as described by the Clinical and Laboratory Standards Institute (CLSI) antimicrobial susceptibility guidelines. The mono-therapeutic effect of each antibiotic and MBLI was evaluated across a panel of MBL-producing Enterobacterales.
(§2) The drug susceptibility profile of meropenem in combination with BP2 was studied using the checkerboard assay. This assay was used to ascertain the effect of two drugs on antimicrobial resistance targeting CRE strains. The assay was performed according to the protocol described previously and was under CLSI antimicrobial susceptibility guidelines. Briefly, twofold dilutions of meropenem with each chelator were made in Cation-adjusted Mueller Hinton Broth (CAMHB) in a 96-well microtiter plate. A 0.5 McFarland-standardized bacterial inoculum was added to each well to obtain a final volume of 100 µL per well. Thereafter, plates were incubated at 37 °C for 18 h under aerobic conditions. The checkerboard assays were performed in triplicate. The MIC was determined as the lowest concentration at which no visible growth was present. The fractional inhibitory concentration index (FICI) was calculated for each combination according to the equation FICI = FICa (MIC of drug A in combination/MIC of drug A alone) + FICb (MIC of drug B in combination/MIC of drug B alone). The FICI was interpreted as follows: synergy, FICI ≤ 0.5; additive 0.5–1; indifference, […] FICI < 4; and antagonism, FICI ≥ 4 [61].

[2] = system: Providencia Rettgeri IR38 (NDM-1); assay: MIC, broth microdilution and checkerboard assay; format: cell-based
Method: as §1, §2

[3] = system: Klebsiella pneumoniae 6852 (IMP-1); assay: MIC, broth microdilution and checkerboard assay; format: cell-based
Method: as §1, §2

[4] = system: Serratia marcescens (IMP-11); assay: MIC, broth microdilution and checkerboard assay; format: cell-based
Method: as §1, §2

[5] = system: Enterobacter cloacae TWA (IMP-8); assay: MIC, broth microdilution and checkerboard assay; format: cell-based
Method: as §1, §2

[6] = system: Enterobacter cloacae KAR (VIM-1); assay: MIC, broth microdilution and checkerboard assay; format: cell-based
Method: as §1, §2

[7] = system: Escherichia coli JAP (IMP-1); assay: MIC, broth microdilution and checkerboard assay; format: cell-based
Method: as §1, §2

[8] = system: Escherichia coli AUS 271 (NDM-1); assay: MIC, broth microdilution and checkerboard assay; format: cell-based
Method: as §1, §2

[9] = Plasma drug concentrations in the in vivo efficacy study; details: male, mouse, 100 mg/kg IP every two hours, infected BALB/c mice
Method: A murine thigh infection model described by Michail et al. was performed with minor modifications. Male Bragg inbred albino c-strain (BALB/c) mice weighing 20–25 g (n = 90) were used in this study. Each of the three groups constituted n = 30 mice, with n = 6 mice receiving treatment every two hours. Prior to infection, mice were IP treated with 150 mg/kg cyclophosphamide on day one and 100 mg/kg on day four of the trial. This was performed to induce neutropenia in the mice. Neutropenia was confirmed by a neutrophil count of <100/mm^3. On day five of the trial, 0.1 mL inoculum containing 10^6–10^8 cfu/mL of K. pneumoniae NDM were IM injected into the right thigh of the mice to initiate infection. Meropenem monotherapy, BP2 + meropenem combination therapy, or normal saline was administered every two hours in an eight-hour treatment period. Mice were euthanized by isoflurane overdose at 2 h, 4 h, 6 h and 8 h post dosing. The right thigh muscle was then aseptically removed and homogenized in 5 mL PBS. Homogenates were spread onto Mueller–Hinton agar and MacConkey agar plates, followed by incubation at 35 °C for 24 h and enumeration of the cfu/mL.
A Shimadzu Nexera Series (Shimadzu Corporation, Kyoto, Japan) liquid chromatography system was coupled with Shimadzu LCMS-8050 tandem mass spectrometer (Shimadzu, Kyoto, Japan). The chromatographic separation was achieved using a Shim-Pack Velox SP-C18 column (100 mm × 2.1 mm, 2.7 µm particle size) with a gradient mobile phase comprised of Millipore water (0.1% v/v trifluoroacetic acid) (A) and Acetonitrile (0.1% v/v trifluoroacetic acid) (B). The gradient method started from 5 to 95% B in 8 min, then held at 95% B for up to 12 min; thereafter, it was brought back to 5% B at 12.1 min. The column was equilibration time was 2.9 min with a flow rate of 0.4 mL min^−1 and the column oven temperature at 40 °C. The injection volume was 25 µL, and the total run time of the method was 15 min. Quantitative and qualitative studies were conducted using MRM mode via an ESI interface, with the following source parameters: nitrogen nebulizer gas flow 3 L/min; heat gas 10 L/min and interface temperature of 300 °C. The precursor and product ions optimized were m/z 813.2→330.0 for BP2, m/z 384.50→68.25 for meropenem and m/z 350.50→304.40 for Ampicillin (IS). Results were analyzed using LabSolutions Insight LCMS. All data are expressed as a mean ± SD.
Figure 6 Plasma BP2 and meropenem concentrations over the eight-hour treatment period. BALB/c mice were infected intramuscularly (IM) in the right thigh with 10^6–10^8 K. pneumoniae NDM cfu/mL. Treatment was initiated two hours post infection with either S, M, or BP2. Four treatment doses were administered via intraperitoneal (IP) injection every two hours. Data are presented as a mean ± SD (n = 6). Meropenem-only (red triangle)—animals treated with meropenem only, Meropenem with BP2 (red circles)—meropenem concentration when animals were treated with the BP2 combination. BP2 with meropenem (green square)—concentration of BP2 when animals were treated with the meropenem combination.

[10] = Single-dose pharmacokinetic experiment; format: in vivo; details: for Time of peak concentration (Cmax) after drug administration: single dose, plasma
Method: In order to evaluate BP2’s potential to act synergetically with antibacterial agents such as meropenem in vivo, we next performed a single-dose pharmacokinetic experiment to ensure an appropriate dosing schedule for achieving a safe and therapeutic concentration of BP2 in plasma. […] Constant concentrations were then reached after two hours. A plasma concentration of 1.93 µg/L was obtained with a dose of 10 mg/kg.b.w. This was far below the cytotoxicity concentrations seen in the cell viability assays, advocating for the safe increase in the treatment dose to 100 mg/kg.b.w, which allowed us to reach therapeutic concentrations (Figure 6) in plasma without the possibility of toxicity. In vivo efficacy studies were undertaken to assess the potency of BP2 in a murine infection model. This five-day animal trial was initiated by immune-suppressing the mice with cyclophosphamide to allow the progression of infection and allow BP2 + meropenem treatment to be studied over eight hours on day five of the trial. In addition, it excludes the effects of the innate immune response as a potential variable. This is important since many carbapenem-resistant infections are acquired as secondary infections in immune-suppressed hosts. The mice were successfully infected with Klebsiella pneumoniae NDM, evidenced by visible inflammation of the localized area; this correlated with the cfu/thigh data expressed (Tables S1–S3). Three treatment regimens of S (saline only), M (meropenem only), and BP2 combination therapy (BP2 + meropenem) were used to randomly categorize mice.
A Shimadzu Nexera Series (Shimadzu Corporation, Kyoto, Japan) liquid chromatography system was coupled with Shimadzu LCMS-8050 tandem mass spectrometer (Shimadzu, Kyoto, Japan). […] Quantitative and qualitative studies were conducted using MRM mode via an ESI interface, with the following source parameters: nitrogen nebulizer gas flow 3 L/min; heat gas 10 L/min and interface temperature of 300 °C. […] Results were analyzed using LabSolutions Insight LCMS. All data are expressed as a mean ± SD.

CON=C(C(=O)NC1C(=O)N2C(C(=O)O)=C(COC(C)=O)CSC12)c1csc(NC(=O)CC(C(=O)OC)N2CCN(CC(=O)O)CCN(CC(=O)O)CC2)n1 (stereo in doubt) [BP2]
MIC ([1]; read-out: MIC BP2 Alone): > 256 µg/mL | MIC ([2]; read-out: MIC BP2 Alone): > 256 µg/mL | MIC ([3]; read-out: MIC BP2 Alone): > 256 µg/mL | MIC ([4]; read-out: MIC BP2 Alone): > 256 µg/mL | MIC ([5]; read-out: MIC BP2 Alone): > 256 µg/mL | MIC ([6]; read-out: MIC BP2 Alone): > 256 µg/mL | MIC ([7]; read-out: MIC BP2 Alone): > 256 µg/mL | MIC ([8]; read-out: MIC BP2 Alone): > 256 µg/mL | concentration at 2 h [9]: 2670 ng/mL | concentration at 4 h [9]: 6970 ng/mL | concentration at 6 h [9]: 4430 ng/mL | concentration at 8 h [9]: 3490 ng/mL | Plasma concentration ([10]; dose of 10 mg/kg.b.w): 1.93 ng/mL | Time of peak concentration (Cmax) after drug administration [10]: 15 min

C[C@@H](O)[C@H]1C(=O)N2C(C(=O)O)=C(S[C@@H]3CN[C@H](C(=O)N(C)C)C3)[C@H](C)[C@H]12 [Meropenem]
MIC ([1]; K. pneumoniae ENNES VIM-1, alone, read-out: MIC MEM Alone): > 32 µg/mL | MIC ([2]; P. Rettgeri IR38 NDM-1, alone, read-out: MIC MEM Alone): 32 µg/mL | MIC ([3]; K. pneumoniae 6852 IMP-1, alone, read-out: MIC MEM Alone): > 32 µg/mL | MIC ([4]; S. marcescens IMP-11, alone, read-out: MIC MEM Alone): > 32 µg/mL | MIC ([5]; E. cloacae TWA IMP-8, alone, read-out: MIC MEM Alone): 0.125 µg/mL | MIC ([6]; E. cloacae KAR VIM-1, alone, read-out: MIC MEM Alone): 4 µg/mL | MIC ([7]; E. coli JAP IMP-1, alone, read-out: MIC MEM Alone): 8 µg/mL | MIC ([8]; E. coli AUS 271 NDM-1, alone, read-out: MIC MEM Alone): > 128 µg/mL | concentration at 2 h [9]: 7060 ng/mL | concentration at 4 h [9]: 27500 ng/mL | concentration at 6 h [9]: 14900 ng/mL | concentration at 8 h [9]: 8840 ng/mL | Time of peak concentration (Cmax) after drug administration [10]: 15 min
